Reference: ChEMBL document CHEMBL1667758, “Synthesis and biological activity of novel inhibitors of topoisomerase I: 2-aryl-substituted 2-bis-1H-benzimidazoles” (Eur J Med Chem, 2011)
Active and inactive are the calls of the source. The rule behind the calls is not given here.

Tests used:
HeLa [1] = assay: cells; details: Homo sapiens, 72 h
Description: Cytotoxicity against human HeLa cells after 72 hrs by MTT assay

MCF7 [2] = assay: cells; details: Homo sapiens, MCF7, 72 h
Description: Cytotoxicity against human MCF7 cells after 72 hrs by MTT assay

[3] = Cytotoxicity against human U87 cells after 72 hrs by MTT assay; format: functional, cell-based, U-87MG ATCC; details: U-87 MG
Calf thymus DNA [4] = assay: Binding affinity to calf thymus DNA after 5 mins by fluorescence assay; format: nucleic-acid assay; details: Bos taurus
Calf thymus DNA [5] = assay: Binding affinity to calf thymus DNA assessed as hypochromicity at DNA/drug ratio 4 after 15 mins by UV-vis spectrophotometer analysis; format: nucleic-acid assay; details: Bos taurus
[6] = Lipophilicity, log P of the compound; format: physicochemical; details: octanol/water
HeLa [7] = assay: Ratio of compound IC50 to Hoechst 33342 IC50 for human HeLa cells; format: functional
Homo sapiens [8] = organism: Homo sapiens; assay: Inhibition of human purified topoisomerase 1b-mediated relaxation of supercoiled pBS (SK+) DNA at 25 uM after 30 mins by agarose gel electrophoresis
HeLa [9] = assay: Ratio of compound IC50 to camptothecin IC50 for human HeLa cells; format: functional
MCF7 [10] = assay: Ratio of compound IC50 to Hoechst 33342 IC50 for human MCF7 cells; format: functional
[11] = Ratio of compound IC50 to Hoechst 33342 IC50 for human U87 cells; format: functional, U-87MG ATCC
Homo sapiens [12] = organism: Homo sapiens; assay: Inhibition of human purified topoisomerase 1b-mediated relaxation of supercoiled pBS (SK+) DNA at 75 uM after 30 mins by agarose gel electrophoresis
Homo sapiens [13] = organism: Homo sapiens; assay: Inhibition of human purified topoisomerase 1b-mediated relaxation of supercoiled pBS (SK+) DNA at 50 uM after 30 mins by agarose gel electrophoresis
Homo sapiens [14] = organism: Homo sapiens; assay: Inhibition of human purified topoisomerase 1b-mediated relaxation of supercoiled pBS (SK+) DNA at 10 uM after 30 mins by agarose gel electrophoresis

Compound: CCOc1ccc(-c2nc3cc(-c4nc5cc(N6CCN(C)CC6)ccc5[nH]4)ccc3[nH]2)cc1
- IC50 (HeLa [1]): 300 nM
- IC50 (MCF7 [2]): 500 nM
- IC50 [3]: 4200 nM
- Activity (Calf thymus DNA [4]): Active
- Activity (Calf thymus DNA [5]): 38%
- logP [6]: 3.95
- Ratio IC50 (HeLa [7]): 2

Compound: CN1CCN(c2ccc3nc(-c4ccc5nc(-c6ccc(Cl)cc6Cl)[nH]c5c4)[nH]c3c2)CC1
- IC50 (HeLa [1]): 600 nM
- Activity (Homo sapiens [8]): Active
- IC50 (MCF7 [2]): 1300 nM
- IC50 [3]: 1500 nM
- Ratio IC50 (HeLa [9]): 3
- Activity (Calf thymus DNA [4]): Active
- Activity (Calf thymus DNA [5]): 28%
- Ratio IC50 (MCF7 [10]): 2.6
- Ratio IC50 [11]: 2.8
- logP [6]: 4.85

Compound: COc1ccc(-c2nc3cc(-c4nc5cc(N6CCN(C)CC6)ccc5[nH]4)ccc3[nH]2)cc1OC
- IC50 (HeLa [1]): 3400 nM
- inhibition (Homo sapiens [12]): 90%
- IC50 (MCF7 [2]): 5300 nM
- IC50 [3]: > 100000 nM
- Activity (Calf thymus DNA [5]): 1%
- logP [6]: 3.48
- inhibition (Homo sapiens [13]): 90%

Compound: COc1cc(-c2nc3ccc(-c4nc5ccc(N6CCN(C)CC6)cc5[nH]4)cc3[nH]2)cc(OC)c1OC
- IC50 (HeLa [1]): 29300 nM
- inhibition (Homo sapiens [12]): 90%
- IC50 (MCF7 [2]): 16800 nM
- IC50 [3]: > 100000 nM
- Activity (Calf thymus DNA [5]): 27%
- logP [6]: 3.36
- inhibition (Homo sapiens [13]): 90%

Compound: CN1CCN(c2ccc3nc(-c4ccc5nc(-c6ccc(F)cc6F)[nH]c5c4)[nH]c3c2)CC1
- IC50 (HeLa [1]): 1500 nM
- Activity (Homo sapiens [8]): Active
- IC50 (MCF7 [2]): 5500 nM
- IC50 [3]: 5500 nM
- Activity (Calf thymus DNA [4]): Active
- Activity (Calf thymus DNA [5]): -20%
- logP [6]: 4.05

Compound: CC[C@@]1(O)C(=O)OCc2c1cc1n(c2=O)Cc2cc3ccccc3nc2-1 [CAMPTOTHECIN]
- IC50 (HeLa [1]): 1500 nM
- inhibition (Homo sapiens [14]): 80%
- IC50 (MCF7 [2]): 650 nM
- IC50 [3]: 500 nM
